Data on 51 molecules can be found in the Deep4Chem optical property database.

The data set in a line: solvent given as SMILES.

Each structure is given as a SMILES string.

As for `CCCC1(CCC)c2cc(C#N)ccc2-c2ccc(C#N)cc21`, the absorption maximum (in C1CCCCC1) is listed as 319 nm.
In turn, `O=c1[nH]c(=O)n([C@@H]2O[C@H](CO)[C@@H](O)[C@H]2O)cc1-c1cc2ccccc2s1` had an absorption maximum (in C1COCCO1) of 322 nm, an absorption maximum (in CC#N) of 321 nm, an absorption maximum (in CO) of 321 nm and an absorption maximum (in O) of 318 nm.
For `COC(=O)c1cc(=O)n(C)c2cc(-c3cccc(N(C)C)c3)sc12`, the absorption maximum (in CC#N) worked out at 396 nm and the absorption maximum (in ClCCl) amounted to 396 nm.
In the case of `CC1(C)c2ccccc2N(c2ccc(-c3ccc4c(c3)C(=O)c3ccc(-c5ccc(N6c7ccccc7C(C)(C)c7ccccc76)cc5)cc3C4=O)cc2)c2ccccc21`, the absorption maximum (in Cc1ccccc1) is reported as 446 nm.
As to `COC(=O)c1nc2cnc(N(C)C)nc2n1Cc1ccccc1`, the absorption maximum runs as follows: (in C1COCCO1) 358 nm; (in CC#N) 359 nm; (in CO) 362 nm; (in ClCCl) 362 nm.
On to `COc1c(-c2ccc(N(C)C)cc2)oc2ccccc2c1=O`, for which the absorption maximum reads like this: (in C1CCCCC1) 361 nm; (in CC#N) 375 nm; (in CCOC(C)=O) 372 nm.
With `Cc1ccc(C(=O)OCc2c(C)c(=O)n3c(=O)c(C)c(C)n23)cc1`, under “in CCO”, the absorption maximum turned out to be 376 nm.
Where the note is “in Cc1ccccc1”, `CC1(C)c2ccccc2N(c2ccc(-c3nc(C#N)c(C#N)nc3-c3ccc(N4c5ccccc5C(C)(C)c5ccccc54)cc3)cc2)c2ccccc21` displayed an absorption maximum of 436 nm.
For the setting “in CCO”, `O=Cc1ccc(-c2ccc(-c3nc4ccccc4s3)c(O)c2)s1` registered an absorption maximum of 376 nm.
Where the note is “in ClC(Cl)Cl”, `COc1ccccc1-c1cc2c(o1)=CC1=Cc3cc4oc(-c5ccccc5OC)cc4n3[B-](F)(F)[N+]=21` gave an absorption maximum of 671 nm.
With `Cc1cc(-n2c3ccccc3c3cc(C#N)ccc32)ccc1-c1ccc(S(=O)(=O)c2ccccc2)cc1C`, the absorption maximum (in Cc1ccccc1) is reported as 341 nm.
`Cc1ccc(C(=O)c2c(C)c3ccc4cccc5c6cccc7ccc2c(c76)c3c45)cc1` came in with an absorption maximum (in ClCCl) of 391 nm.
Turning to `CCn1c2ccsc2c2c3nsnc3c3c4sccc4n(CC)c3c21`, the absorption maximum by setting is: (in C1CCOC1) 436 nm; (in CCOC(C)=O) 433 nm; (in CN(C)C=O) 441 nm; (in Cc1ccccc1) 432 nm; (in ClCCl) 436 nm.
For the molecule `N#Cc1nc2c(OCc3ccccc3)nc(N)nc2n1Cc1ccccc1`, the absorption maximum runs as follows: (in C1COCCO1) 313 nm; (in CC#N) 313 nm; (in CO) 318 nm; (in ClCCl) 311 nm.
In the case of `CC1(C)CC(=O)c2cc(F)c(F)cc2N1`, the absorption maximum runs as follows: (in CC#N) 369 nm; (in CCO) 381 nm.
For `CN(C)c1ccc(C2=Cc3cccc[n+]3[B-](F)(F)O2)cc1`, the absorption maximum by setting is: (in C1CCOC1) 420 nm; (in C1COCCO1) 417 nm; (in CC1CCCCC1) 413 nm; (in CC#N) 417 nm; (in CCOC(C)=O) 416 nm; (in CCOCC) 413 nm. In addition, the absorption maximum was 423 nm (in CN(C)C=O), 418 nm (in CO), 417 nm (in COC(C)=O) and 426 nm (in ClC(Cl)Cl).
Consider `CCC(CC)c1ccc2cc3c([o+]c2c1)/C(=C/Cc1ccccc1)CCC3`, for which the absorption maximum is 604 nm (in CCO), 616 nm (in ClC(Cl)Cl) and 615 nm (in ClCCl).
As to `C=CCOc1ccc(-c2nc3cc(C(NC(=O)OC(C)(C)C)C(=O)OC)ccc3o2)cc1` (stereo not drawn), the absorption maximum by setting is: (in CC1CCCCC1) 324 nm; (in CC#N) 309 nm; (in CO) 309 nm.
Under “in ClCCl”, `CCCCCCn1c(=O)c2c3oc4ccccc4sc3c3c(=O)n(CCCCCC)c(=O)c3c2c1=O` registered an absorption maximum of 437 nm.
For the molecule `O=C1C2=C(O[B-](F)(F)[n+]3c2ccc2ccccc23)c2ccc(N3CCOCC3)c3cccc1c23`, the absorption maximum came out at 464 nm (in C1CCOC1); 468 nm (in CC#N); 460 nm (in CCO); 461 nm (in CO); 468 nm (in ClCCl).
`COc1ccc2c(c1)CCC1=C(C#Cc3ccccc3)O[B-](F)(F)[O+]=C12` registered an absorption maximum (in ClCCl) of 443 nm.
Where the note is “in CC#N”, `Oc1ccc2ccccc2c1/C=N/c1ccccc1/N=C/c1c(O)ccc2ccccc12` had an absorption maximum of 429 nm.
For the setting “in ClCCl”, `F[B-]12OC(c3ccccc3)=Nc3cccc([n+]31)N=C(c1ccccc1)O2` gave an absorption maximum of 394 nm.
The same measure, in the same setting: for `CCCCCCCCCCCCN1C(=O)c2c(c3ccc4cc(-c5ccc(Cl)cc5)c(OC)cc4c3c3c2ccc2cc(-c4ccc(Cl)cc4)c(OC)cc23)C1=O` the value was 430 nm.
Under “in CCO”, `CC1=CC(C)(C)N(C)c2cc3c(cc21)C(c1ccc(Br)cc1)=c1cc2c(cc1O3)=[N+](C)C(C)(C)C=C2C` came in with an absorption maximum of 594 nm.
As to `Cn1c(=O)c(/N=N/c2cc(S(=O)(=O)O)ccc2C(=O)O)c(O)c2ccccc21`, the absorption maximum reads like this: (in C1CCOC1) 408 nm; (in CC(C)=O) 407 nm; (in CCOC(C)=O) 407 nm; (in CO) 406 nm; (in CS(C)=O) 417 nm; (in Cc1ccccc1) 421 nm. The absorption maximum reads like this: (in ClCCl) 420 nm; (in O) 421 nm.
With `CCOC(=O)C(Cc1ccc(O[Si]2(Oc3ccc(CC(NC(C)=O)C(=O)OCC)cc3)n3c4c5ccccc5c3/N=C3N=C(/N=c5/c6ccccc6/c(n52)=N/C2=NC(=N\4)/c4ccccc42)c2ccccc2\3)cc1)NC(C)=O` (stereo not drawn), where the note is “in CN(C)C=O”, the absorption maximum is recorded as 681 nm.
With `O=Cc1ccc(/C=C/c2nc(N3CCOCC3)c3c([n+]2[O-])CCCC3)cc1`, where the note is “in ClCCl”, the absorption maximum was found to be 418 nm.
Same read-out and setting: then `CC(C)(C)c1ccc2c(c1)c1cc(C(C)(C)C)ccc1n2-c1ccc(-c2cccs2)s1`, with 340 nm; and `COc1cc(-c2cnc(-c3ccncc3)o2)cc(OC)c1OC`, with 332 nm.
In turn, `Oc1ccccc1-c1nc2c3ccccc3c3ccccc3c2o1` came in with an absorption maximum (in Cc1ccccc1) of 364 nm.
For the setting “in O”, `O=S(=O)([O-])c1cccc2c([O-])cccc12` displayed an absorption maximum of 346 nm.
On to `CCN(CC)c1cccc2c1ccc1c(=O)oc(-c3ccc(C(F)(F)F)cc3)cc12`, for which the absorption maximum came out at 390 nm (in CC(C)=O); 388 nm (in CCCCCC); 393 nm (in CCCCCCCCO); 392 nm (in CCCCO); 391 nm (in CCCO); 392 nm (in CCO). Besides, the absorption maximum is given as 389 nm (in CCOC(C)=O), 394 nm (in CN(C)C=O) and 391 nm (in CO).
Regarding `NNC(=O)N1C(=O)c2cc(S(=O)(=O)[O-])cc3c(N)c(S(=O)(=O)[O-])cc(c23)C1=O`, the absorption maximum (in O) is 458 nm.
Molecule `N#Cc1ccc(N/N=C/c2ccc3ccccc3c2O)cc1` returned an absorption maximum (in CC#N) of 380 nm; an absorption maximum (in CCCCCC) of 384 nm; an absorption maximum (in CO) of 380 nm; an absorption maximum (in CS(C)=O) of 390 nm; an absorption maximum (in ClC(Cl)Cl) of 384 nm.
In turn, `Cc1ccc(C2=C3C=CC4=[N+]3[B-](F)(F)n3c2ccc3-c2ccc([nH]2)/C(c2ccc(C)cc2)=c2/cc/c(o2)=C(\c2ccc(C)cc2)c2ccc4[nH]2)cc1` returned an absorption maximum (in ClC(Cl)Cl) of 703 nm.
In the case of `Nc1nc2ccc(Br)cc2s1`, the absorption maximum is, setting by setting: (in CC#N) 269 nm; (in ClCCl) 268 nm.
Molecule `CC1=c2c3c4cccc5cccc(c=3c(C)[n+]2[B-](F)(F)n2c(C)c3c(c21)-c1cccc2cccc-3c12)c54` returned an absorption maximum (in ClC(Cl)Cl) of 657 nm.
In the case of `C(#Cc1cc2ccc3cccc4ccc(c1)c2c34)c1ccccc1`, the absorption maximum (in Cc1ccccc1) stood at 390 nm.
For the molecule `COc1cc(OC)cc(C2=C3C(C)=C(I)C(C)=[N+]3[B-](F)(F)n3c(/C=C/c4ccsc4)c(I)c(C)c32)c1`, the absorption maximum was found to be 598 nm (in C1CCOC1), 604 nm (in CS(C)=O) and 599 nm (in ClCCl).
As to `O=Cc1ccc2nc(C#Cc3ccc(N(c4ccccc4)c4ccccc4)cc3)sc2c1`, the absorption maximum (in Cc1ccccc1) is 411 nm.
For the molecule `CCOC(=O)c1c(-c2cc3c(ccc4ccccc43)oc2=O)nn(-c2cccc(Cl)c2)c1C(=O)OCC`, for the setting “in ClCCl”, the absorption maximum was determined as 361 nm.
Take `CC1(C)C(/C=C/C=C/C=C/C=C2/N(S(=O)(=O)[O-])c3ccc(S(=O)(=O)[O-])cc3C2(C)C)=[N+](S(=O)(=O)[O-])c2ccc(S(=O)(=O)[O-])cc21`: the absorption maximum (in CO) was found to be 755 nm.
`CCN(CC)c1ccc2cc3c(cc2c1)C1(c2ccccc2Oc2ccccc21)c1cc2cc(N(CC)CC)ccc2cc1C3=O` returned an absorption maximum (in CC#N) of 452 nm.
Under “in ClCCl”, `CCN1C(=O)C(C2C(=O)c3c4ccccc4cc4cc5ccccc5c2c34)C(=O)N(CC)C1=S` (stereo not drawn) showed an absorption maximum of 532.11 nm.
`CCCCC(CC)Cn1c2cc(C#N)ccc2c2ccc(C#Cc3ccc4ccc5ccc(C#Cc6ccc7c8ccc(C#N)cc8n(CC(CC)CCCC)c7c6)c6ccc3c4c56)cc21` (stereo not drawn) yielded an absorption maximum (in ClCCl) of 447 nm.
Still for that read-out and setting: then `C(S/C=C/c1ccc(/C=C/SC=C2CCCC2)cc1)=C1CCCC1`, with 350 nm.
On the same count and under the same terms, for `F[B-]1(F)n2c(cc3c4ccccc4c4ccccc4c32)-c2ccc3ccccc3[n+]21` the value was 476 nm.
`CC1(C)c2ccccc2N(c2ccc(-c3ccc(C#N)c(C#N)n3)cc2)c2ccccc21` displayed an absorption maximum (in Cc1ccccc1) of 404 nm.
Same read-out and setting: for `Cc1cc(C)c(B(c2ccc(-c3cc4ccc5cccc6ccc(c3)c4c56)cc2)c2c(C)cc(C)cc2C)c(C)c1` the value was 378 nm.
In the case of `CC(C)[Si]1(C(C)C)c2ccccc2-c2ccc(N(C)C)cc21`, the absorption maximum is, setting by setting: (in C1CCCCC1) 323 nm; (in CC#N) 321 nm; (in CCO) 319 nm; (in CCOCC) 318 nm; (in CS(C)=O) 324 nm; (in ClCCl) 323 nm. In addition, the absorption maximum (in c1ccccc1) was found to be 323 nm.
